Laboratory results: PubChem BioAssay (NCI)
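Briefly, cells in 96-well plates were exposed to five compound concentrations for 48 h, and endpoints were estimated by linear interpolation. TGI is the concentration that stops growth completely.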

Legend:
Test in all cases: NCI-60 cell line screen, 48 h
[1] = tested on: OVCAR-4 ovarian
[2] = tested on: PC-3 prostate
[3] = tested on: DU-145 prostate
[4] = tested on: UACC-62 melanoma
[5] = tested on: HOP-62 NSCLC
[6] = tested on: OVCAR-3 ovarian
[7] = tested on: HCT-116 colon
[8] = tested on: RPMI-8226 leukemia
[9] = tested on: HL-60(TB) leukemia
[10] = tested on: NCI-H460 lung
[11] = tested on: M14 melanoma
[12] = tested on: U251 CNS
[13] = tested on: LOX IMVI melanoma
[14] = tested on: MDA-N
[15] = tested on: SK-OV-3 ovarian
[16] = tested on: HCT-15 colon
[17] = tested on: HT29 colon
[18] = tested on: UACC-257 melanoma
[19] = tested on: A549 NSCLC
[20] = tested on: MCF7 breast
[21] = tested on: SK-MEL-5 melanoma
[22] = tested on: SF-268 CNS
[23] = tested on: NCI/ADR-RES ovarian
[24] = tested on: K-562 leukemia
[25] = tested on: OVCAR-8 ovarian
[26] = tested on: SK-MEL-28 melanoma
[27] = tested on: UO-31 renal
[28] = tested on: CCRF-CEM leukemia
[29] = tested on: HCC-2998 colon
[30] = tested on: NCI-H522 lung
[31] = tested on: ACHN renal
[32] = tested on: IGROV1 ovarian
[33] = tested on: MOLT-4 leukemia
[34] = tested on: TK-10 renal
[35] = tested on: SW-620 colon
[36] = tested on: EKVX NSCLC
[37] = tested on: SNB-19 CNS
[38] = tested on: MALME-3M melanoma
[39] = tested on: T-47D breast
[40] = tested on: SF-295 CNS
[41] = tested on: OVCAR-5 ovarian
[42] = tested on: MDA-MB-435
[43] = tested on: COLO 205 colon
[44] = tested on: MDA-MB-231 breast

Measured: TGI

Nc1ccc(OCC(O)N2C(=O)c3ccccc3C2=O)cc1 (centres undefined)
> 100 µM: [1] | [2] | [3] | [4] | [5] | [6] | [7] | [8] | [9] | [10] | [11] | [12] | [13] | [14] | [15] | [16] | [17] | [18] | [19] | [20] | [21] | [22] | [23] | [24] | [25] | [26] | [27] | [28] | [29] | [30] | [31] | [32] | [33] | [34] | [35] | [36] | [37] | [38] | [39] | [40] | [41] | [42] | [43] | [44]
